{"source": "patent US6924300B2", "about": "“Oxyiminoalkanoic acid derivatives” (Takeda Chemical Industries, Ltd., priority 1998, dated 2005)", "key": {"[1]": {"system": "KKA^y mice", "experiment": "Hypoglycemic and hypolipidemic actions in mice (test compound in diet, plasma glucose and triglyceride)", "assay_type": "in vivo", "conditions": "Mus musculus, feed or water, 96 h, 4 days", "experimental": "A test compound was added to a powdered diet (CE-2, Clea Japan Inc.) at a concentration of 0.01%, and the diet was given ad libitum to KKA^y mice (9 to 12 weeks old, 5 animals in a group), a model of obese Type II diabetes mellitus (non-insulin dependent diabetes mellitus), for 4 days. During this period, water was given ad libitum. Blood was sampled from orbital venous plexus and plasma glucose and triglyceride levels were determined enzymatically using L type Wako Glu2 (Wako Pure Chemical In. Ltd.) and Iatro-MA701 TG kit (Iatron Laboratories Inc.) or L type Wako TG.H (Wako Pure Chemical Ind. Ltd.), respectively.\nThe value of each treatment group is represented as % reduction when compared with the non-treatment group, and summarized in Table 1."}, "[2]": {"molecular_target": "T1, PPARγ-RXRα heterodimer (Homo sapiens, UniProt P37231)", "T1 construct": "expressed in transfected cells", "T1 sequence (P37231 1-477 isoform P37231-2)": "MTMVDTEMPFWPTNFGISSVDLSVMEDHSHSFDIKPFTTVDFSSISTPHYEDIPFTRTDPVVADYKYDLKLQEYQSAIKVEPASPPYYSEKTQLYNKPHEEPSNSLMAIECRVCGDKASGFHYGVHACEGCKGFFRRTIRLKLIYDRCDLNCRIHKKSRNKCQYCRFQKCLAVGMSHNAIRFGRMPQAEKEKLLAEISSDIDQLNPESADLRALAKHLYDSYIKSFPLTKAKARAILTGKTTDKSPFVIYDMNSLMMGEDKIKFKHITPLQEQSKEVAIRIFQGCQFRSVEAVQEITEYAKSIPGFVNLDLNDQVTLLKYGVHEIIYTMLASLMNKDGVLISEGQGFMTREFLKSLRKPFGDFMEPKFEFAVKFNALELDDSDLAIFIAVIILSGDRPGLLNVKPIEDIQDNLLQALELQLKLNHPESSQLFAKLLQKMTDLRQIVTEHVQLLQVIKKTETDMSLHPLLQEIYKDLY", "T1 sequence (P19793 1-462 partner)": "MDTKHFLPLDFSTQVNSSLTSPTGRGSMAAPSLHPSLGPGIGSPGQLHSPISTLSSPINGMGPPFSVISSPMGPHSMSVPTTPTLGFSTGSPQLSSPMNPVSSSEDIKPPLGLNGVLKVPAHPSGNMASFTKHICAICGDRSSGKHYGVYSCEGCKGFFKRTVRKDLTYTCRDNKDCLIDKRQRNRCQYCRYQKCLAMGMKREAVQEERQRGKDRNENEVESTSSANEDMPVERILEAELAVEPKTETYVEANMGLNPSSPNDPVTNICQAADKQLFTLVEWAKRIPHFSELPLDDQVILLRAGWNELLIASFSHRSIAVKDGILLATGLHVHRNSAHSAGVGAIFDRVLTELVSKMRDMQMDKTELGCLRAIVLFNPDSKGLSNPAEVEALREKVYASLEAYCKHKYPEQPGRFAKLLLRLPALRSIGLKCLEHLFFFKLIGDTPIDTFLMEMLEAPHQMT", "experiment": "PPARγ-RXRα heterodimer transactivation assay (luciferase reporter in PPARγ: RXRα: 4ERPP/CHO-K1 cell)", "assay_type": "cell-based", "conditions": "luciferase induction, 48 hours, concentration for 50% of the maximum activity", "experimental": "After washing a 96-well white plate with PBS (Phosphate-buffered saline), 90 μl of HAM F12 medium containing 0.1% fatty acid-free bovine serum albumin (BSA) and 10 μl of a test substance were added to the plate, which was then cultured in a carbonate gas incubator at 37° C. for 48 hours. After removing the medium, 40 μl of […] 7.5 (Wako Pure Chemical Ind. Ltd.) was added, and after stirring, a luciferase activity was determined using Lumistar (BMG Labtechnologies GmBH, Germany).\nAn induction magnitude was calculated based on the luciferase activity of each test substance with the luciferase activity in the non-treatment group being regarded as 1.\nSubsequently, the cells were transferred into a HAM F12 medium containing 10% Fetal Bovine Serum and cultured for 24 hours and then the cells were scraped again and centrifuged, and then suspended in HAM F12 medium containing 10% Fetal Bovine Serum supplemented with 500 μg/ml of GENETICIN (Life Technologies, Inc., USA) and 250 μg of ZEOCIN (Invitrogen, USA) and diluted to the density of 10^4 cells/ml upon inoculation to a 96-well plate (Corning Coster Corporation, USA), which was cultured in a carbonate gas incubator at 37° C., whereby obtaining a GENETICIN- and ZEOCIN-resistant transformant.\nSubsequently, the transformant cell line thus obtained was cultured in a 24-well plate (Corning Coster Corporation, USA) and then screened, by addition of 10 μM Pioglitazone, for a cell line in which the luciferase expression was induced, i.e., PPARγ: RXRα: 4ERPP/CHO-K1 cell."}, "[3]": {"system": "KKA^y mice", "experiment": "Hypoglycemic and hypolipidemic actions in mice (test compound in diet, plasma glucose and triglyceride)", "assay_type": "in vivo", "conditions": "Mus musculus, feed or water, 96 h, dosage: 0.005% in diet, 4 days"}, "[4]": {"conditions": "0.01% in diet, plasma triglyceride, Iatro-MA701 TG kit, compared with non-treatment group, read-out: Hypotriglyceridemic effect (% reduction)"}, "[5]": {"conditions": "0.01% in powdered diet, plasma glucose, compared with non-treatment group, read-out: Hypoglycemic effect (% reduction)"}, "[6]": {"conditions": "0.01% in diet, plasma triglyceride, quantified using L-type Wako TG.H, read-out: Hypotriglyceridemic effect (% reduction)"}}, "note": "Like-named read-outs stand apart in the source and are kept apart here."}
{"smiles": "Cc1oc(-c2ccccc2)nc1COc1ccc(CO/N=C(\\C(=O)O)c2ccccc2)cc1", "note": "[Example 1, Z-2-[4-(5-methyl-2-phenyl-4-oxazolylmethoxy)benzyloxyimino]-2-phenylacetic acid]", "values": [{"measurement": "inhibition in vivo at 0.01 %", "setting": "[1]; [4]", "result": 35, "unit": "%"}, {"measurement": "inhibition in vivo at 0.01 %", "setting": "[1]; [5]", "result": 36, "unit": "%"}]}
{"smiles": "Cc1oc(-c2ccccc2)nc1COc1ccc(CO/N=C(\\CCC(=O)O)c2ccccc2)cc1", "note": "[Example 7, E-4-[4-(5-methyl-2-phenyl-4-oxazolylmethoxy)benzyloxyimino]-4-phenylbutyric acid]", "values": [{"measurement": "inhibition in vivo at 0.01 %", "setting": "[1]; [4]", "result": 61, "unit": "%"}, {"measurement": "inhibition in vivo at 0.01 %", "setting": "[1]; [5]", "result": 42, "unit": "%"}]}
{"smiles": "Cc1oc(-c2ccccc2)nc1COc1ccc(CO/N=C(\\C(=O)O)c2ccc(Br)cc2)cc1", "note": "[Example 10, Z-2-(4-bromophenyl)-2-[4-(5-methyl-2-phenyl-4-oxazolylmethoxy)benzyloxyimino]acetic acid]", "values": [{"measurement": "inhibition in vivo at 0.01 %", "setting": "[1]; [4]", "result": 45, "unit": "%"}, {"measurement": "inhibition in vivo at 0.01 %", "setting": "[1]; [5]", "result": 36, "unit": "%"}]}
{"smiles": "Cc1oc(-c2ccccc2)nc1COc1ccc(CO/N=C(\\C(=O)O)c2ccc(Oc3ccccc3)cc2)cc1", "note": "[Example 11, Z-2-[4-(5-methyl-2-phenyl-4-oxazolylmethoxy)benzyloxyimino]-2-(4-phenoxyphenyl)acetic acid]", "values": [{"measurement": "inhibition in vivo at 0.01 %", "setting": "[1]; [4]", "result": 82, "unit": "%"}, {"measurement": "inhibition in vivo at 0.01 %", "setting": "[1]; [5]", "result": 49, "unit": "%"}, {"measurement": "EC50", "setting": "[2]", "result": 410, "unit": "nM"}]}
{"smiles": "Cc1oc(-c2ccccc2)nc1COc1ccc(CO/N=C(\\CCC(=O)O)c2ccc(F)cc2)cc1", "note": "[Example 17, E-4-(4-fluorophenyl)-4-[4-(5-methyl-2-phenyl-4-oxazolylmethoxy)benzyloxyimino]butyric acid]", "values": [{"measurement": "inhibition in vivo at 0.01 %", "setting": "[1]; [6]", "result": 59, "unit": "%"}, {"measurement": "inhibition in vivo at 0.01 %", "setting": "[1]; [5]", "result": 49, "unit": "%"}, {"measurement": "EC50", "setting": "[2]", "result": 47, "unit": "nM"}]}
{"smiles": "Cc1oc(-c2ccccc2)nc1COc1ccc(CO/N=C(\\C(=O)O)C(C)C)cc1", "note": "[Example 25, Z-3-methyl-2-[4-(5-methyl-2-phenyl-4-oxazolylmethoxy)benzyloxyimino]butyric acid]", "values": [{"measurement": "inhibition in vivo at 0.01 %", "setting": "[1]; [4]", "result": 66, "unit": "%"}, {"measurement": "inhibition in vivo at 0.01 %", "setting": "[1]; [5]", "result": 38, "unit": "%"}, {"measurement": "EC50", "setting": "[2]", "result": 790, "unit": "nM"}]}
{"smiles": "Cc1oc(-c2ccccc2)nc1COc1ccc(CO/N=C(\\CCCCCCC(=O)O)c2ccccc2)cc1", "note": "[Example 81, E-8-[4-(5-methyl-2-phenyl-4-oxazolylmethoxy)benzyloxyimino]-8-phenyloctanoic acid]", "values": [{"measurement": "inhibition in vivo at 0.01 %", "setting": "[1]; [6]", "result": 75, "unit": "%"}, {"measurement": "inhibition in vivo at 0.01 %", "setting": "[1]; [5]", "result": 54, "unit": "%"}, {"measurement": "EC50", "setting": "[2]", "result": 260, "unit": "nM"}]}
{"smiles": "Cc1oc(-c2ccccc2)nc1COc1ccc(CO/N=C(\\CCC(N)=O)c2ccccc2)cc1", "note": "[Example 106, E-4-[4-(5-methyl-2-phenyl-4-oxazolylmethoxy)benzyloxyimino]-4-phenylbutyramide]", "values": [{"measurement": "melting point", "result": "164 to 165", "unit": "°C"}, {"measurement": "EC50", "setting": "[2]", "result": 330, "unit": "nM"}, {"measurement": "inhibition in vivo at 0.005 %", "setting": "[3]; plasma glucose, compared with non-treatment group, read-out: Hypoglycemic effect (% reduction)", "result": 46, "unit": "%"}, {"measurement": "inhibition in vivo at 0.005 %", "setting": "[3]; plasma triglyceride, quantified using L-type Wako TG.H, read-out: Hypotriglyceridemic effect (% reduction)", "result": 65, "unit": "%"}]}
{"smiles": "Cc1oc(-c2ccccc2)nc1COc1ccc(CO/N=C(/CCC(N)=O)c2ccccc2)cc1", "note": "[Example 139, Z-4-[4-(5-methyl-2-phenyl-4-oxazolylmethoxy)benzyloxyimino]-4-phenylbutanamide]", "values": [{"measurement": "melting point", "result": "110 to 112", "unit": "°C"}]}
{"smiles": "Cc1oc(-c2ccccc2)nc1COc1ccc(CO/N=C(\\CCCC(C)(C)C(=O)O)c2ccccc2)cc1", "note": "[Example 141, E-2,2-dimethyl-6-[4-(5-methyl-2-phenyl-4-oxazolylmethoxy)benzyloxyimino]-6-phenylhexanoic acid]", "values": [{"measurement": "melting point", "result": "111 to 112", "unit": "°C"}]}
{"smiles": "Cc1oc(-c2ccccc2)nc1COc1ccc(CO/N=C(\\CCCCC(=O)NS(C)(=O)=O)c2ccccc2)cc1", "note": "[Example 142, E-N-methanesulfonyl-6-[4-(5-methyl-2-phenyl-4-oxazolylmethoxy)benzyloxyimino]-6-phenylhexanamide]", "values": [{"measurement": "melting point", "result": "130 to 132", "unit": "°C"}]}
{"smiles": "Cc1oc(-c2ccccc2)nc1COc1ccccc1CO/N=C(\\CCC(=O)O)c1ccccc1", "note": "[Example 144, E-4-[2-(5-methyl-2-phenyl-4-oxazolylmethoxy)benzyloxyimino]-4-phenylbutyric acid]", "values": [{"measurement": "melting point", "result": "116 to 117", "unit": "°C"}]}
{"smiles": "COc1cc(CO/N=C(\\CCC(=O)O)c2ccccc2)cc(OC)c1OCc1nc(-c2ccccc2)oc1C", "note": "[Example 146, E-4-[3,5-dimethoxy-4-(5-methyl-2-phenyl-4-oxazolylmethoxy)benzyloxyimino]-4-phenylbutyric acid]", "values": [{"measurement": "melting point", "result": "89 to 90", "unit": "°C"}]}
{"smiles": "COC(=O)CC/C(=N\\OCc1ccc(OCc2nc(-c3ccco3)oc2C)c(OC)c1)c1ccccc1", "note": "[Example 147, methyl E-4-[4-[2-(2-furyl)-5-methyl-4-oxazolylmethoxy]-3-methoxybenzyloxyimino]-4-phenylbutyrate]", "values": [{"measurement": "melting point", "result": "67 to 69", "unit": "°C"}]}
{"smiles": "COc1cc(CO/N=C(\\CCC(=O)O)c2ccccc2)ccc1OCc1nc(-c2ccco2)oc1C", "note": "[Example 148, E-4-[4-[2-(2-furyl)-5-methyl-4-oxazolylmethoxy]-3-methoxybenzyloxyimino]-4-phenylbutyric acid]", "values": [{"measurement": "melting point", "result": "131 to 132", "unit": "°C"}]}
{"smiles": "COC(=O)CC/C(=N\\OCc1ccc(OCc2nc(-c3ccccc3)oc2C)c(OC)c1)c1ccccc1", "note": "[Example 149, methyl E-4-[3-methoxy-4-(5-methyl-2-phenyl-4-oxazolylmethoxy)benzyloxyimino]-4-phenylbutyrate]", "values": [{"measurement": "melting point", "result": "112 to 114", "unit": "°C"}]}
{"smiles": "COc1cc(CO/N=C(\\CCC(=O)O)c2ccccc2)ccc1OCc1nc(-c2ccccc2)oc1C", "note": "[Example 150, E-4-[3-methoxy-4-(5-methyl-2-phenyl-4-oxazolylmethoxy)benzyloxyimino]-4-phenylbutyric acid]", "values": [{"measurement": "melting point", "result": "134 to 135", "unit": "°C"}]}
